Test results published in patent US20040127446A1 (priority 1992, published 2004).
[invAb] = 3' inverted deoxyabasic cap; [amino-N] = 2'-deoxy-2'-amino nucleotide (N: the base); [I] = hypoxanthine (inosine); m = 2'-O-methyl; r = 2'-OH (RNA)

System: plus strand HCV RNA
Type: biochemical, Hepatitis C virus
Settings: plus strand (+) HCV site, 50 mM Tris-Cl, pH 8.0, 40 mM Mg2+ at 37°, trace substrate, enzymatic nucleic acid concentration of 500 nM or greater

Row | Substance | % Substrate Cleaved in 3 hours
1 | 22720 (GGAGAGGUGAUGGCAUGCACUAUGCGCGAUAUACA; sugars from the 5' end mmmmmmmmrrrmmmmmrmmmmmmmmmrmmmmmmmm, [invAb] at 3' end, backbone not given here) [compound 22720] | 77.74%
2 | 22721 (UCUAAGGUGAUGGCAUGCACUAUGCGCGACACGGU; sugars from the 5' end mmmmmmmmrrrmmmmmrmmmmmmmmmrmmmmmmmm, [invAb] at 3' end, backbone not given here) [compound 22721] | 47.37%
3 | 22722 (ACCACCUUGAUGGCAUGCACUAUGCGCGACUCCAC; sugars from the 5' end mmmmmmmmrrrmmmmmrmmmmmmmmmrmmmmmmmm, [invAb] at 3' end, backbone not given here) [compound 22722] | 75.84%
4 | 22723 (ACAGGUUUGAUGGCAUGCACUAUGCGCGAACUCGU; sugars from the 5' end mmmmmmmmrrrmmmmmrmmmmmmmmmrmmmmmmmm, [invAb] at 3' end, backbone not given here) [compound 22723] | 61.58%
5 | 22748 (AGGUGAAGCCGAAAGGCGAGUGAGGUCUAGCUGAG; 2'-O-methyl at 1, 2, 3, 4, 5, 6, 7, 8, 9, 10, 11, 12, 13, 14, 15, 16, [amino-N] at 17, 27, [invAb] at 3' end, other sugars and backbone not given here) [compound 22748] | 80.28%
6 | 22749 (GGAAAAGGCCGAAAGGCGAGUGAGGUCUAACAGGA; 2'-O-methyl at 1, 2, 3, 4, 5, 6, 7, 8, 9, 10, 11, 12, 13, 14, 15, 16, [amino-N] at 17, 27, [invAb] at 3' end, other sugars and backbone not given here) [compound 22749] | 90.80%
7 | 22750 (AGAAGAAGCCGAAAGGCGAGUGAGGUCUACGAGGAN; 2'-O-methyl, 2'-amino and inverted abasic, amino positions listed inconsistently, further chemistry not given here) [compound 22750] | 80.64%
8 | 22751 (GAGUUGAGCCGAAAGGCGAGUGAGGUCUUGGAGUG; 2'-O-methyl at 1, 2, 3, 4, 5, 6, 7, 8, 9, 10, 11, 12, 13, 14, 15, 16, [amino-N] at 17, 27, [invAb] at 3' end, other sugars and backbone not given here) [compound 22751] | 14.85%
9 | 22775 (AAGAGGACUGAUGAGGCCGUUAGGCCGAANAUAGAG; ribozyme; 2'-O-methyl at 1, 2, 3, 4, 5, 6, 7, 15, 16, 17, 18, 19, 20, 21, 22, 23, 24, 25, 26, 31, 32, 33, 34, 35, 36, [I] at 30, [invAb] at 3' end, other sugars and backbone not given here) [compound 22775] | 87.74%
10 | 22776 (GGUGAACCUGAUGAGGCCGUUAGGCCGAANCUGAGA; ribozyme; 2'-O-methyl at 1, 2, 3, 4, 5, 6, 7, 15, 16, 17, 18, 19, 20, 21, 22, 23, 24, 25, 26, 31, 32, 33, 34, 35, 36, [I] at 30, [invAb] at 3' end, other sugars and backbone not given here) [compound 22776] | 84.55%
11 | 22777 (CGAGGAACUGAUGAGGCCGUUAGGCCGAANAGAGGA; ribozyme; 2'-O-methyl at 1, 2, 3, 4, 5, 6, 7, 15, 16, 17, 18, 19, 20, 21, 22, 23, 24, 25, 26, 31, 32, 33, 34, 35, 36, [I] at 30, [invAb] at 3' end, other sugars and backbone not given here) [compound 22777] | 90.12%
12 | 22778 (UGAUGGACUGAUGAGGCCGUUAGGCCGAANCUGUGA; ribozyme; 2'-O-methyl at 1, 2, 3, 4, 5, 6, 7, 15, 16, 17, 18, 19, 20, 21, 22, 23, 24, 25, 26, 31, 32, 33, 34, 35, 36, [I] at 30, [invAb] at 3' end, other sugars and backbone not given here) [compound 22778] | 83.77%
13 | 22779 (UGAGGAACUGAUGAGGCCGUUAGGCCGAANGUGGAG; ribozyme; 2'-O-methyl at 1, 2, 3, 4, 5, 6, 7, 15, 16, 17, 18, 19, 20, 21, 22, 23, 24, 25, 26, 31, 32, 33, 34, 35, 36, [I] at 30, [invAb] at 3' end, other sugars and backbone not given here) [compound 22779] | 82.22%
14 | 22943 (GCUGAGACUGAUGAGGCCGUUAGGCCGAAACGAGGA; 2'-O-methyl at 1, 2, 3, 4, 5, 6, 7, 15, 16, 17, 18, 19, 20, 21, 22, 23, 24, 25, 26, 31, 32, 33, 34, 35, 36, [invAb] at 3' end, other sugars and backbone not given here) [compound 22943] | 89.67%
15 | 22944 (UCCUGUUCUGAUGAGGCCGUUAGGCCGAAAUGUGCC; 2'-O-methyl at 1, 2, 3, 4, 5, 6, 7, 15, 16, 17, 18, 19, 20, 21, 22, 23, 24, 25, 26, 31, 32, 33, 34, 35, 36, [invAb] at 3' end, other sugars and backbone not given here) [compound 22944] | 90.33%
16 | 22945 (GGAAGGACUGAUGAGGCCGUUAGGCCGAAAGGAUGC; 2'-O-methyl at 1, 2, 3, 4, 5, 6, 7, 15, 16, 17, 18, 19, 20, 21, 22, 23, 24, 25, 26, 31, 32, 33, 34, 35, 36, [invAb] at 3' end, other sugars and backbone not given here) [compound 22945] | 82.54%
17 | 22946 (CUCCACGCUGAUGAGGCCGUUAGGCCGAAACUCCUC; 2'-O-methyl at 1, 2, 3, 4, 5, 6, 7, 15, 16, 17, 18, 19, 20, 21, 22, 23, 24, 25, 26, 31, 32, 33, 34, 35, 36, [invAb] at 3' end, other sugars and backbone not given here) [compound 22946] | 78.06%
18 | 22947 (GGAGUGACUGAUGAGGCCGUUAGGCCGAAAAUGCGC; 2'-O-methyl at 1, 2, 3, 4, 5, 6, 7, 15, 16, 17, 18, 19, 20, 21, 22, 23, 24, 25, 26, 31, 32, 33, 34, 35, 36, [invAb] at 3' end, other sugars and backbone not given here) [compound 22947] | 81.88%
19 | 22971 (AGGAAGAGGCTAGCTACAACGAAGAGAAAN; 3' inverted abasic cap (B); misc_feature (30)..(30): n stands for inverted deoxyabasic derivative; misc_feature (1)..(7): 2'-O-Methyl; misc_feature (23)..(29): 2'-O-Methyl) [compound 22971] | 92.11%
20 | 22972 (UGAGAGAGGCTAGCTACAACGAGAGGAAGN; 3' inverted abasic cap (B); Description of Artificial Sequence: Nucleic Acid; misc_feature (30)..(30): "n" is an inverted deoxyabasic moiety; misc_feature (1)..(7): 2'-O-Methyl; misc_feature (23)..(29): 2'-O-Methyl) [compound 22972] | 86.38%
